Where a name gives a salt, the structure may show the parent alone. Some results are limits rather than exact numbers.

One assay concerns the target T1, hDGAT1 (Homo sapiens, UniProt O75907).
T1 construct: made in house; host or cells: Sf9 insect cells (baculovirus); microsomal fraction
T1 sequence (O75907 1-488): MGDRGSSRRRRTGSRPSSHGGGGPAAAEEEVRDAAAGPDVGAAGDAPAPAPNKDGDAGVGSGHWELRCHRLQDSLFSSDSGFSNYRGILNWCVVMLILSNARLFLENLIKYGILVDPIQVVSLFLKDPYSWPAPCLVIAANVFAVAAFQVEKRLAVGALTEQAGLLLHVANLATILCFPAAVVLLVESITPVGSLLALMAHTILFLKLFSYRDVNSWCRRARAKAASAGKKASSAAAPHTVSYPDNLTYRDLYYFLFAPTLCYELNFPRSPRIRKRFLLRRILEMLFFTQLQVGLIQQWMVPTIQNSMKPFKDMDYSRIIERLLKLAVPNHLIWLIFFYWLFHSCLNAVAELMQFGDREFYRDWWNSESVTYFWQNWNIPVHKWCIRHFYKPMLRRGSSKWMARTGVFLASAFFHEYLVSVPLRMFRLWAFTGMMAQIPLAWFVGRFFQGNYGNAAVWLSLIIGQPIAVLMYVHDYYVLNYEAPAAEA
Put plainly: In-vitro DGAT1 assay with hDGAT1 microsomes from Sf9 cells (14C oleoyl CoA, scintillation counting). Format: biochemical. Particulars: at 1 μM. The essentials: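 Microsomes from Sf9 cells infected with hDGAT1 baculovirus (MOI 5, harvested ~66-72 h) were incubated with [14C]oleoyl-CoA and 1,2-dioleoyl-sn-glycerol at 37 °C for 10 min, in duplicate. After alkaline ethanol stop, triglycerides were heptane-extracted and counted by liquid scintillation; percent inhibition was plotted against compound concentration (nM).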
In the case of `O=C(Nc1ccc(-c2cnc(CNS(=O)(=O)C(F)(F)F)s2)cc1)NC1CCCCC1` [Example 548, N-((5-(4-(3-Cyclohexylureido)phenyl)thiazol-2-yl)methyl)-1,1,1-trifluoro methanesulfonamide], the “Percentage inhibition of hDGAT1” value is on record as “++ (>50 % Inhibition)”. The same measure, in the same setting: for “4-(5-(4-(3-(2-Fluorophenyl)-2-methylguanidino)phenyl)thiazol-2-yl)-2,2-dimethyl butanoic acid [Example 271]” the value was “+ (20-50% Inhibition)”; for `O=C(Nc1ccc(-c2noc([C@H]3CC[C@H](C(=O)O)CC3)n2)cc1)Nc1ccc(F)cc1F` [Example 221, (1r,4r)-4-(3-(4-(3-(2,4-Difluorophenyl)ureido)phenyl)-1,2,4-oxadiazol-5-yl)cyclohexanecarboxylic acid], “+ (20-50% Inhibition)”.

With `CC(C)(CCc1ncc(-c2ccc(NC(=O)c3ccc(-c4ccccc4)cc3)cc2)s1)C(=O)O` [Example 108, 4-(5-(4-Biphenyl-4-ylcarboxamidophenyl)thiazol-2-yl)-2,2-dimethylbutanoic acid], the “Percentage inhibition of hDGAT1” value is “++ (>50 % Inhibition)”. In the case of “4-(3-(4-(3-(2,4-Difluorophenyl)ureido)phenyl)-1,2,4-oxadiazol-5-yl)butanoic acid [Example 332]”, the “Percentage inhibition of hDGAT1” value was “+ (20-50% Inhibition)”.

Staying with this assay, now noted: read-out: Percentage inhibition of hDGAT1.
`O=C(Nc1ccc(-c2ccn(C3CCC(C(=O)O)CC3)n2)cc1)Nc1cccc(C(F)(F)F)c1` (centres unmarked) [Example 315, 4-(3-(4-(3-(3-(Trifluoromethyl)phenyl)ureido)phenyl)-1H-pyrazol-1-yl)cyclohexanecarboxylic acid]: the inhibition at 1 µM lay within 20 to 50%.

`Cc1oc(-c2ccccc2)nc1C(=O)Nc1ccc(-c2cnc(C3CCC(CC(=O)O)CC3)s2)cc1` (centres unmarked) [Example 372, 2-(4-(5-(4-(5-Methyl-2-phenyloxazole-4-carboxamido)phenyl)thiazol-2-yl)cyclohexyl)acetic acid]: the inhibition at 1 µM is > 50%. Still for that read-out and setting: the figure for `O=C(Nc1ccc(-c2cnc(C3CCNCC3)s2)cc1)Nc1ccc(F)cc1F` [Example 478, 1-(2,4-Difluorophenyl)-3-(4-(2-(piperidin-4-yl)thiazol-5-yl)phenyl)urea hydrochloride] is 20 to 50%; for `O=C(Nc1ccc(-c2cnc(C3CCC(C(=O)O)CC3)s2)cc1)Nc1ccc(Cl)cc1F` (centres unmarked) [Example 172, 4-(5-(4-(3-(4-Chloro-2-fluorophenyl)ureido)phenyl)thiazol-2-yl)cyclohexane carboxylic acid] it is > 50%; for `Cc1nnc(CC2CCC(c3ncc(-c4ccc(N)cc4)s3)CC2)s1` (centres unmarked) [Example 413, 4-(2-(4-((5-Methyl-1,3,4-thiadiazol-2-yl)methyl)cyclohexyl)thiazol-5-yl)aniline] it is > 50%. As to `O=C(Nc1ccc(-c2cnc(C34CC5CC(CC(C(=O)O)(C5)C3)C4)s2)cc1)Nc1cc(F)c(F)cc1F` [Example 508, 3-(5-(4-(3-(2,4,5-Trifluorophenyl)ureido)phenyl)thiazol-2-yl)adamantane-1-carboxylic acid], the inhibition at 1 µM was > 50%. Same read-out and setting: for `O=C(Nc1ccc(-c2cnc(C3CCC(C(=O)O)CC3)s2)cc1)Nc1ccccc1F` (centres unmarked) [Example 140, 4-(5-(4-(3-(2-Fluorophenyl)ureido)phenyl)thiazol-2-yl)cyclohexanecarboxylic acid] the value was > 50%; for `COc1ccc(S(=O)(=O)Nc2ccc(-c3cnc(CC(C)(C)CC(=O)O)s3)cc2)c(OC)c1` [Example 81, 4-(5-(4-(2,4-Dimethoxyphenylsulfonamido)phenyl)thiazol-2-yl)-3,3-dimethylbutanoic acid], 20 to 50%; for `O=C(Nc1ccc(-c2cnc(C3CCC(C(=O)O)CC3)s2)cc1)Nc1cccc(F)c1` (centres unmarked) [Example 178, 4-(5-(4-(3-(3-Fluorophenyl)ureido)phenyl)thiazol-2-yl)cyclohexanecarboxylic acid], > 50%.

`CC(C)(CCc1ncc(-c2ccc(NC(=O)Nc3ccccc3F)cc2)s1)C(=O)NS(=O)(=O)C(F)(F)F` [Example 580, 4-(5-(4-(3-(2-Fluorophenyl)ureido)phenyl)thiazol-2-yl)-2,2-dimethyl-N-((trifluoromethyl)sulfonyl)butanamide]: the inhibition at 1 µM is > 50%. Consider `O=C(Nc1ccc(-c2cnc(C3CCC(C(=O)O)CC3)s2)cc1)Nc1ccc(F)c(F)c1F` (centres unmarked) [Example 186, 4-(5-(4-(3-(2,3,4-Trifluorophenyl)ureido)phenyl)thiazol-2-yl)cyclohexane carboxylic acid], for which the inhibition at 1 µM was > 50%. Still for that read-out and setting: for `Cc1ccc(NC(=O)Nc2ccc(-c3cnc(C4CCC(C(=O)O)CC4)s3)cc2)cc1` (centres unmarked) [Example 136, 4-(5-(4-(3-p-Tolylureido)phenyl)thiazol-2-yl)cyclohexanecarboxylic acid] the value was > 50%; for `O=C(O)CC1CCC(c2ncc(-c3ccc(NC(=O)Nc4ccccc4F)cc3)s2)CC1` (centres unmarked) [Example 348, 2-(4-(5-(4-(3-(2-Fluorophenyl)ureido)phenyl)thiazol-2-yl)cyclohexyl)acetic acid], > 50%. On the same count and under the same terms, for `O=C(Nc1ccc(-c2cnc(C3CCC(C(=O)O)CC3)s2)cc1)Nc1ccc(Cl)cc1C(F)(F)F` (centres unmarked) [Example 160, 4-(5-(4-(3-(4-Chloro-2-(trifluoromethyl)phenyl)ureido)phenyl)thiazol-2-yl)cyclohexanecarboxylic acid] the value was > 50%; for `CC(C)(Cc1ncc(-c2ccc(NC(=O)c3ccc(C(C)(C)C)cc3)cc2)s1)C(=O)O` [Example 42, 3-(5-(4-(4-tert-Butylbenzamido)phenyl)thiazol-2-yl)-2,2-dimethylpropanoic acid], 20 to 50%. On to `O=C(O)CC1CCC(c2ncc(-c3ccc(NC(=O)Nc4ccc(F)cc4F)cc3)s2)CC1` (centres unmarked) [Example 362, 2-(4-(5-(4-(3-(2,4-Difluorophenyl)ureido)phenyl)thiazol-2-yl)cyclohexyl)acetic acid], for which the inhibition at 1 µM was > 50%.

Take `O=C(O)CCCc1nnc(-c2ccc(NC(=O)Nc3ccc(F)cc3F)cc2)o1` [Example 300, 4-(5-(4-(3-(2,4-Difluorophenyl)ureido)phenyl)-1,3,4-oxadiazol-2-yl)butanoic acid]: the inhibition at 1 µM fell in the range of 20 to 50%. On the same count and under the same terms, the figure for `Cc1ccc(Cl)c(NC(=O)Nc2ccc(-c3cnc(C4CCC(C(=O)O)CC4)s3)cc2)c1` (centres unmarked) [Example 150, 4-(5-(4-(3-(2-Chloro-5-methylphenyl)ureido)phenyl)thiazol-2-yl)cyclohexane carboxylic acid] is > 50%. On the same count and under the same terms, for `CC(C(=O)O)N1CCC(c2ncc(-c3ccc(NC(=O)Nc4ccccc4Cl)cc3)s2)CC1` (centres unmarked) [Example 455, 2-(4-(5-(4-(3-(2-Chlorophenyl)ureido)phenyl)thiazol-2-yl)piperidin-1-yl)propanoic acid] the value was > 50%; for `Cc1nnc(CC2CCC(c3ncc(-c4ccc(NC(=O)Nc5cc(F)cc(F)c5)cc4)s3)CC2)o1` (centres unmarked) [Example 381, 1-(3,5-Difluorophenyl)-3-(4-(2-(4-((5-methyl-1,3,4-oxadiazol-2-yl)methyl)cyclohexyl)thiazol-5-yl)phenyl)urea], > 50%. Still for that read-out and setting: for `O=C(Nc1ccc(-c2cnc(C3CCC(C(=O)O)CC3)s2)cc1)Nc1ccc(Cl)cc1Oc1ccccc1` (centres unmarked) [Example 190, 4-(5-(4-(3-(4-Chloro-2-phenoxyphenyl)ureido)phenyl)thiazol-2-yl)cyclohexane carboxylic acid] the value was > 50%.

Usually inhibition stands for the percentage by which the read-out fell short of the control.
